# Laboratory results published in patent US8299056B2 (Signal Pharmaceuticals, LLC, priority 2008, dated 2012).
# Target: T1, Syk (Homo sapiens, UniProt P43405)
# T1 construct: purchased Carna Biosciences
# Experiment: Syk HTRF assay
# Type: biochemical
# Details: IC50 activity level, read-out: Activity Level
# In short: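 Read-out is the 665 nm/615 nm time-resolved fluorescence ratio after EDTA stop and Eu-anti-phosphotyrosine plus streptavidin-DyLight 647 detection. Reaction ran 1 h at room temperature with start mix of 87.5 μM ATP and 80 nM substrate peptide in pH 7.6 HEPES/MgCl2 buffer.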
row,SMILES,IC50 [nM]
1,"O[C@H]1CC[C@@H](Cc2cccc3nc(Nc4ccc(C(F)(F)F)cc4)nn23)CC1 [Example 399, cis-4-((2-(4-(trifluoromethyl)phenylamino)-[1,2,4]triazolo[1,5-a]pyridin-5-yl)methyl)cyclohexanol]",0.005 to 250
2,c1cc(N[C@@H]2CCCNC2)n2nc(Nc3ccc4c(c3)CNC4)nc2c1 [Example 449],0.005 to 250
3,"Cc1ccc(Nc2nc3cccc(N[C@H]4CC[C@@H](O)CC4)n3n2)cn1 [Example 403, cis-4-(2-(6-methylpyridin-3-ylamino)-[1,2,4]triazolo[1,5-a]pyridin-5-ylamino)cyclohexanol]",0.005 to 250

# Results, then the molecule that gave them:
row,IC50 [nM],SMILES
1,250 to 500,"OC(c1cccnc1)c1cccc2nc(Nc3ccccc3)nn12 (stereo not drawn) [Example 501, (2-(phenylamino)-[1,2,4]triazolo[1,5-a]pyridin-5-yl)(pyridin-3-yl)methanol]"
2,1000 to 10000,"O=C(c1ccccc1)c1cccc2nc(Nc3ccccc3)nn12 [Example 509, phenyl(2-(phenylamino)-[1,2,4]triazolo[1,5-a]pyridin-5-yl)methanone]"
3,0.005 to 250,"CC1(C)C(=O)Nc2cc(Nc3nc4cccc(CC5CCOC5)n4n3)ccc21 (single isomer, unassigned; enantiomer 1) [Example 561, 3,3-dimethyl-6-(5-((tetrahydrofuran-3-yl)methyl)-[1,2,4]triazolo[1,5-a]pyridin-2-ylamino)indolin-2-one (enantiomer 1)]"
4,1000 to 10000,"CC(Cc1cccc2nc(Nc3ccccc3)nn12)C(N)=O (stereo in doubt) [Example 461, (S)-2-methyl-3-(2-(phenylamino)-[1,2,4]triazolo[1,5-a]pyridin-5-yl)propanamide]"
5,1000 to 10000,"c1ccc(Nc2nc3cccc(Oc4ccccc4)n3n2)cc1 [Example 503, 5-phenoxy-N-phenyl-[1,2,4]triazolo[1,5-a]pyridin-2-amine]"
6,1000 to 10000,"Cc1noc2cc(Nc3nc4cccc(NC5CCOCC5)n4n3)ccc12 [Example 531, N^2-(3-methylbenzo[d]isoxazol-6-yl)-N^5-(tetrahydro-2H-pyran-4-yl)-[1,2,4]triazolo[1,5-a]pyridine-2,5-diamine]"
7,0.005 to 250,"O[C@H]1CC[C@@H](Nc2cccc3nc(Nc4cnc5cn[nH]c5c4)nn23)CC1 [Example 553, cis-4-(2-(1H-pyrazolo-[4,3-b]pyridin-6-ylamino)-[1,2,4]triazolo[1,5-a]pyridin-5-ylamino)cyclohexanol]"
8,0.005 to 250,"O[C@H]1CC[C@@H](Nc2cccc3nc(Nc4ccc(-c5nc[nH]n5)cc4)nn23)CC1 [Example 567, cis-4-(2-(4-(1H-1,2,4-triazol-3-yl)phenylamino)-[1,2,4]triazolo[1,5-a]pyrridin-5-ylamino)cyclohexanol]"
9,500 to 1000,"C[C@@H](CO)Cc1cccc2nc(Nc3ccccc3)nn12 [Example 479, (R)-2-methyl-3-(2-(phenylamino)-[1,2,4]triazolo[1,5-a]pyridin-5-yl)propan-1-ol]"
10,1000 to 10000,"NC(=O)[C@H]1CC[C@@H](Nc2cccc3nc(Nc4ccccc4)nn23)CC1 [Example 519, cis-4-(2-(phenylamino)-[1,2,4]triazolo[1,5-a]pyrridin-5-ylamino)cyclohexanecarboxamide]"
11,500 to 1000,"FC(F)(F)c1ccc(Nc2nc3cccc(N[C@@H]4CCCNC4)n3n2)cc1 [Example 468, (R)-N^5-(piperidin-3-yl)-N^2-(4-(trifluoromethyl)phenyl)-[1,2,4]triazolo[1,5-a]pyridin-2,5-diamine]"
12,0.005 to 250,"CN(C)c1cccc2nc(Nc3ccc4c(c3)NC(=O)C4(C)C)nn12 [Example 566, 6-(5-(dimethylamino)-[1,2,4]triazolo[1,5-a]pyridin-2-ylamino)-3,3-dimethylindolin-2-one]"
13,250 to 500,"Nc1n[nH]c2ccc(-c3cccc4nc(Nc5ccccc5)nn34)cc12 [Example 511, 5-(3-amino-1H-indazol-5-yl)-N-phenyl-[1,2,4]triazolo[1,5-a]pyridin-2-amine]"

# Same assay, conditions: activity levels A-D, read-out: Activity Level (IC50 in the Syk HTRF assay)
row,IC50 [nM],SMILES
1,1000 to 10000,"CNC(=O)c1ccc(Nc2nc3cccc(O[C@H]4CC[C@@H](N)CC4)n3n2)cc1 [Example 283, cis-4-(5-(4-aminocyclohexyloxy)-[1,2,4]triazolo[1,5-a]pyridin-2-ylamino)-N-methylbenzamide]"
2,1000 to 10000,"N#Cc1ccc(Nc2nc3cccc(N[C@H]4CC[C@@H](O)CC4)n3n2)c(F)c1 [Example 341, cis-3-fluoro-4-(5-(4-hydroxycyclohexylamino)-[1,2,4]triazolo[1,5-a]pyridin-2-ylamino)benzonitrile]"
3,0.005 to 250,"Cc1n[nH]c2cc(Nc3nc4cccc(N5CC(O)C5)n4n3)ccc12 [Example 215, 1-(2-(3-methyl-1H-indazol-6-ylamino)-[1,2,4]triazolo[1,5-a]pyridin-5-yl)azetidin-3-ol]"
4,500 to 1000,"CC(C)(O)[C@H]1CC[C@@H](Nc2cccc3nc(Nc4ccc(C(F)(F)F)cc4)nn23)CC1 [Example 385, cis-2-(4-(2-(4-(trifluoromethyl)phenylamino)-[1,2,4]triazolo[1,5-a]pyridin-5-ylamino)cyclohexyl)propan-2-ol]"
5,1000 to 10000,"O=C1NCCC1NCc1cccc2nc(Nc3ccc(C(F)(F)F)cc3)nn12 (racemic) [Example 207, (±)-3-((2-(4-(trifluoromethyl)phenylamino)-[1,2,4]triazolo[1,5-a]pyridin-5-yl)methylamino)pyrrolidin-2-one]"
6,1000 to 10000,"Oc1cc(Nc2nc3cccc(N[C@H]4CC[C@@H](O)CC4)n3n2)ccn1 [Example 331, cis-4-(5-(4-hydroxycyclohexylamino)-[1,2,4]triazolo[1,5-a]pyridin-2-ylamino)pyridin-2-ol]"
7,0.005 to 250,"NC(=O)CNCc1cccc2nc(Nc3ccc(C(F)(F)F)cc3)nn12 [Example 290, 2-((2-(4-(trifluoromethyl)phenylamino)-[1,2,4]triazolo[1,5-a]pyridin-5-yl)methylamino)acetamide]"
8,0.005 to 250,"CNc1cc(Nc2nc3cccc(N[C@H]4CC[C@@H](O)CC4)n3n2)ccn1 [Example 366, cis-4-(2-(2-(methylamino)pyridin-4-ylamino)-[1,2,4]triazolo[1,5-a]pyridin-5-ylamino)cyclohexanol]"
9,0.005 to 250,"OC1CCC[C@@H]1Nc1cccc2nc(Nc3ccc(C(F)(F)F)cc3)nn12 (stereo in doubt) [Example 374, (1S,2S)-2-(2-(4-(trifluoromethyl)phenylamino)-[1,2,4]triazolo[1,5-a]pyridin-5-ylamino)cyclopentanol]"
10,1000 to 10000,"O[C@H]1CC[C@@H](Nc2cccc3nc(Nc4cccnc4F)nn23)CC1 [Example 322, cis-4-(2-(2-fluoropyridin-3-ylamino)-[1,2,4]triazolo[1,5-a]pyridin-5-ylamino)cyclohexanol]"
11,1000 to 10000,"NCCCOc1cccc2nc(Nc3ccc(C(F)(F)F)cc3)nn12 [Example 321, 5-(3-aminopropoxy)-N-(4-(trifluoromethyl)phenyl)-[1,2,4]triazolo[1,5-a]pyridin-2-amine]"
12,500 to 1000,"Cc1n[nH]c2cc(Nc3nc4cccc(C(O)C5CCOCC5)n4n3)ccc12 (stereo not drawn) [Example 200, (2-(3-methyl-1H-indazol-6-ylamino)-[1,2,4]triazolo[1,5-a]pyridin-5-yl)(tetrahydro-2H-pyran-4-yl)methanol]"
13,250 to 500,"CNC(=O)c1ccc(Nc2nc3cccc(OC4CCC(N)CC4)n3n2)cc1 (stereo in doubt) [Example 291, trans-4-(5-(4-aminocyclohexyloxy)-[1,2,4]triazolo[1,5-a]pyridin-2-ylamino)-N-methylbenzamide]"
14,1000 to 10000,"OC1CCCC[C@H]1Nc1cccc2nc(Nc3ccc(C(F)(F)F)cc3)nn12 (stereo in doubt) [Example 270, (1S,2R)-2-(2-(4-(trifluoromethyl)phenylamino)-[1,2,4]triazolo[1,5-a]pyridin-5-ylamino)cyclohexanol]"

# Same assay, conditions: read-out: Activity Level (Syk HTRF assay IC50)
row,SMILES,IC50 [nM]
1,"CC1(C)C(=O)Nc2cc(Nc3nc4cccc(CC5CCNCC5)n4n3)ccc21 [Example 138, 3,3-dimethyl-6-(5-(piperidin-4-ylmethyl)-[1,2,4]triazolo[1,5-a]pyridin-2-ylamino)indolin-2-one]",0.005 to 250
2,"Cc1n[nH]c2cc(Nc3nc4cccc(NC5COCC5O)n4n3)ccc12 (racemic) [Example 166, (±)-trans-4-(2-(3-methyl-1H-indazol-6-ylamino)-[1,2,4]-triazolo[1,5-a]pyridin-5-ylamino)tetrahydrofuran-3-ol]",0.005 to 250

# Next, values leading:
row,IC50 [nM],SMILES
1,250 to 500,NCCNc1cc(Nc2nc3cccc(-c4ccccc4)n3n2)ccn1 [compound 39]
2,0.005 to 250,"Cc1cc(Nc2nc3cccc(Cc4ccnc(O)c4)n3n2)cc2[nH]ncc12 [compound 124, 4-((2-(4-methyl-1H-indazol-6-ylamino)-[1,2,4]triazolo[1,5-a]pyridin-5-yl)methyl)pyridine-2-ol]"
3,0.005 to 250,O=C1CCCN1c1ccc(Nc2nc3cccc(-c4ccccc4)n3n2)cc1 [compound 50]
4,0.005 to 250,"Cc1nc2ccc(Nc3nc4cccc(-c5cccc(O)c5)n4n3)cc2[nH]1 [compound 10, 3-(2-(2-methyl-1H-benzo[d]imidazol-6-ylamino)-[1,2,4]triazolo[1,5-a]pyridin-5-yl)phenol]"
5,0.005 to 250,"O=C(O)c1ccc(Nc2nc3cccc(-c4cccc(O)c4)n3n2)cc1 [compound 25, 4-(5-(3-hydroxyphenyl)-[1,2,4]triazolo[1,5-a]pyridin-2-ylamino)benzoic acid]"
6,0.005 to 250,"CNC(=O)c1ccc(Nc2nc3cccc(-c4cccc(O)c4)n3n2)cc1 [compound 36, 4-(5-(3-hydroxyphenyl)-[1,2,4]triazolo[1,5-a]pyridin-2-ylamino)-N-methylbenzamide]"
7,1000 to 10000,"CNC(=O)c1ccc(Nc2nc3cccc(-c4cccc(C(=O)O)c4)n3n2)cc1 [compound 30, 3-(2-(4-(methylcarbamoyl)phenylamino)-[1,2,4]triazolo[1,5-a]pyridin-5-yl)benzoic acid]"
